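Cells were grown in 96-well plates and exposed to each compound for 48 hours at five concentrations; endpoints were interpolated linearly between bracketing concentrations, or set to the highest concentration if not reached. Definition used: TGI = concentration required for complete inhibition of growth.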
Columns and labels:
Experiment in all cases: growth of human tumour cells (NCI), 48 h
OVCAR-3 ovarian = tested on: OVCAR-3 ovarian
SK-MEL-2 melanoma = tested on: SK-MEL-2 melanoma
SF-295 CNS = tested on: SF-295 CNS
IGROV1 ovarian = tested on: IGROV1 ovarian
NCI-H23 lung = tested on: NCI-H23 lung
HOP-62 NSCLC = tested on: HOP-62 NSCLC
EKVX NSCLC = tested on: EKVX NSCLC
NCI-H460 lung = tested on: NCI-H460 lung
CCRF-CEM leukemia = tested on: CCRF-CEM leukemia
UACC-62 melanoma = tested on: UACC-62 melanoma
RXF 393 renal = tested on: RXF 393 renal
SF-268 CNS = tested on: SF-268 CNS
TK-10 renal = tested on: TK-10 renal
HS 578T breast = tested on: HS 578T breast
NCI/ADR-RES ovarian = tested on: NCI/ADR-RES ovarian
NCI-H522 lung = tested on: NCI-H522 lung
MALME-3M melanoma = tested on: MALME-3M melanoma
SK-OV-3 ovarian = tested on: SK-OV-3 ovarian
A498 renal = tested on: A498 renal
DU-145 prostate = tested on: DU-145 prostate

Row | Compound | TGI (OVCAR-3 ovarian) | TGI (SK-MEL-2 melanoma) | TGI (SF-295 CNS) | TGI (IGROV1 ovarian) | TGI (NCI-H23 lung) | TGI (HOP-62 NSCLC) | TGI (EKVX NSCLC) | TGI (NCI-H460 lung) | TGI (CCRF-CEM leukemia) | TGI (UACC-62 melanoma) | TGI (RXF 393 renal) | TGI (SF-268 CNS) | TGI (TK-10 renal) | TGI (HS 578T breast) | TGI (NCI/ADR-RES ovarian) | TGI (NCI-H522 lung) | TGI (MALME-3M melanoma) | TGI (SK-OV-3 ovarian) | TGI (A498 renal) | TGI (DU-145 prostate)
1 | COC(=O)C1=C(C)N2CCOC2CC1c1ccccc1 (centres undefined) | > 100 µM | > 100 µM | > 100 µM | > 100 µM | > 100 µM | > 100 µM | > 100 µM | > 100 µM | > 100 µM | > 100 µM | > 100 µM | > 100 µM | > 100 µM | – | – | – | – | – | – | –
2 | CN1C(=O)C2C=C3CCCCC3=CC2N(C)C1=O (centres undefined) | > 100 µM | > 100 µM | > 100 µM | > 100 µM | > 100 µM | > 100 µM | > 100 µM | > 100 µM | > 100 µM | > 100 µM | > 100 µM | > 100 µM | > 100 µM | > 100 µM | > 100 µM | > 100 µM | > 100 µM | > 100 µM | > 100 µM | > 100 µM
3 | Cc1ccc(S(=O)(=O)NCCCSCCSCCCN)cc1 | > 100 µM | – | > 100 µM | – | > 100 µM | – | – | > 100 µM | > 100 µM | – | > 100 µM | > 100 µM | > 100 µM | > 100 µM | > 100 µM | > 100 µM | – | > 100 µM | > 100 µM | > 100 µM
4 | CN(C)CCN(C(=Nc1ccccc1)N1CCCC1)c1ccccc1 | > 100 µM | > 100 µM | > 100 µM | > 100 µM | > 100 µM | > 100 µM | > 100 µM | > 100 µM | > 100 µM | > 100 µM | – | > 100 µM | > 100 µM | > 100 µM | > 100 µM | > 100 µM | > 100 µM | > 100 µM | – | > 100 µM
5 | CCN(CC)CCN(C(=O)c1ccc(F)cc1)c1ccccc1N | > 10 µM | > 10 µM | > 10 µM | > 10 µM | > 10 µM | > 10 µM | > 10 µM | > 10 µM | > 10 µM | > 10 µM | > 10 µM | > 10 µM | > 10 µM | > 10 µM | > 10 µM | > 10 µM | > 10 µM | > 10 µM | > 10 µM | > 10 µM
6 | COc1cc2oc(=O)ccc2cc1CC=C(C)C | > 100 µM | > 100 µM | > 100 µM | > 100 µM | > 100 µM | > 100 µM | > 100 µM | > 100 µM | > 100 µM | – | 64.7 µM | > 100 µM | 97.5 µM | > 100 µM | 79.3 µM | > 100 µM | > 100 µM | – | > 100 µM | > 100 µM
7 | O=C(N/N=C\C(F)(F)F)c1ccncc1 | > 100 µM | > 100 µM | > 100 µM | > 100 µM | 50.6 µM | > 100 µM | – | > 100 µM | > 100 µM | > 100 µM | > 100 µM | – | > 100 µM | > 100 µM | > 100 µM | – | > 100 µM | > 100 µM | > 100 µM | > 100 µM
8 | Cc1ccc(S(=O)(=O)NNC2Oc3cc4c(cc3C(c3ccccc3O)C2C)OCO4)cc1 (centres undefined) | 23.7 µM | 22.8 µM | 24.4 µM | 27.2 µM | 33 µM | 29.6 µM | 23.8 µM | 24.5 µM | 34.5 µM | 29.8 µM | 19.3 µM | 28.5 µM | 31.3 µM | 29.5 µM | – | 27.3 µM | 25.9 µM | 37.9 µM | 30.7 µM | 29.2 µM

Source: PubChem BioAssay (NCI)
